Measurements: patent publication US9708293B2, “N-(pyridin-2-yl)pyrimidin-4-amine derivatives containing a sulfone group” (BAYER PHARMA AKTIENGESELLSCHAFT, priority 2012, dated 2017)
pIC50: −log10 of the molar value.

Assays:
CDK9/CycT1 = molecular target: T1, CDK9/CycT1 (Homo sapiens, UniProt P50750); assay: CDK9/CycT1 high ATP kinase assay (Method 1b); type: biochemical; details: 2 mM ATP
T1 construct: Recombinant full-length His-tagged human CDK9 and CycT1; His; purchased Invitrogen PV4131; host or cells: insect cells
Description: 1b. CDK9/CycT1 High ATP Kinase Assay
CDK9/CycT1-inhibitory activity of compounds of the present invention at a high ATP concentration after preincubation of enzyme and test compounds was quantified employing the CDK9/CycT1 TR-FRET assay as described in the following paragraphs.
Recombinant full-length His-tagged human CDK9 and CycT1, expressed in insect cells and purified by Ni-NTA affinity chromatography, were purchase from Invitrogen (Cat. No PV4131). As substrate for the kinase reaction biotinylated peptide biotin-Ttds-YISPLKSPYKISEG (C-terminus in amid form) was used which can be purchased e.g. form the company JERINI peptide technologies (Berlin, Germany). For the assay 50 n1 of a 100 fold concentrated solution of the test compound in DMSO was pipetted into a black low volume 384 well microtiter plate (Greiner Bio-One, Frickenhausen, Germany), 2 μl of a solution of CDK9/CycT1 in aqueous assay buffer [50 mM Tris/HCl pH 8.0, 10 mM MgCl2, 1.0 mM dithiothreitol, 0.1 mM sodium ortho-vanadate, 0.01% (v/v) Nonidet-P40 (Sigma)] were added and the mixture was incubated for 15 min at 22° C. to allow pre-binding of the test compounds to the enzyme before the start of the kinase reaction. Then the kinase reaction was started by the addition of 3 μl of a solution of adenosine-tri-phosphate (ATP, 3.3 mM=>final conc. in the 5 μl assay volume is 2 mM) and substrate (1.67 μM=>final conc. in the 5 μl assay volume is 1 μM) in assay buffer and the resulting mixture was incubated for a reaction time of […] at 22° C. The concentration of CDK9/CycT1 was adjusted depending of the activity of the enzyme lot and was chosen appropriate to have the assay in the linear range, typical concentrations were in the range of 0.5 μg/mL. The reaction was stopped by the addition of 5 μl of a solution of TR-FRET detection reagents (0.2 μM streptavidine-XL665 [Cisbio Bioassays, Codolet, France] and 1 nM anti-RB(pSer807/pSer811)-antibody from BD Pharmingen [#558389] and 1.2 nM LANCE EU-W1024 labeled anti-mouse IgG antibody [Perkin-Elmer, product no. AD0077]) in an aqueous EDTA-solution (100 mM EDTA, 0.2% (w/v) bovine serum albumin in 100 mM HEPES/NaOH pH 7.0).
The resulting mixture was incubated 1 h at 22° C. to allow the formation of complex between the phosphorylated biotinylated peptide and the detection reagents. Subsequently the amount of phosphorylated substrate was evaluated by measurement of the resonance energy transfer from the Eu-chelate to the streptavidine-XL. Therefore, the fluorescence emissions at 620 nm and 665 nm after excitation at 350 nm was measured in a HTRF reader, e.g. a Rubystar (BMG Labtechnologies, Offenburg, Germany) or a Viewlux (Perkin-Elmer). The ratio of the emissions at 665 nm and at […] was taken as the measure for the amount of phosphorylated substrate. […]

HeLa cells = assay: Proliferation assay, HeLa; type: cell-based; details: Homo sapiens, 96 h, 4 days, crystal violet, read-out: Inhibition of HeLa cell proliferation IC50
Description: (§1) Cultivated tumour cells (HeLa, human cervical tumour cells, ATCC CCL-2; NCI-H460, human non-small cell lung carcinoma cells, ATCC HTB-177; A2780, human ovarian carcinoma cells, ECACC #93112519; DU 145, hormone-independent human prostate carcinoma cells, ATCC HTB-81; HeLa-MaTu-ADR, multidrug-resistant human cervical carcinoma cells, EPO-GmbH Berlin; Caco-2, human colorectal carcinoma cells, ATCC HTB-37; B16F10, mouse melanoma cells, ATCC CRL-6475) were plated at a density of 5,000 cells/well (DU145, HeLa-MaTu-ADR), 3,000 cells/well (NCI-H460, HeLa), 2,500 cells/well (A2780), 1,500 cells/well (Caco-2), or 1,000 cells/well (B16F10) in a 96-well multititer plate in 200 μL of their respective growth medium supplemented 10% fetal calf serum. After 24 hours, the cells of one plate (zero-point plate) were stained with crystal violet (see below), while the medium of the other plates was replaced by fresh culture medium (200 μl), to which the test substances were added in various concentrations (0 μM, as well as in the range of 0.001-10 μM; the final concentration of the solvent dimethyl sulfoxide was 0.5%). The cells were incubated for 4 days in the presence of test substances. Cell proliferation was determined by staining the cells with crystal violet: the cells were fixed by adding 20 μl/measuring point of an 11% glutaric aldehyde solution for 15 minutes at room temperature. After three washing cycles of the fixed cells with water, the plates were dried at room temperature. The cells were stained by adding 100 μl/measuring point of a 0.1% crystal violet solution (pH 3.0). After three washing cycles of the stained cells with water, the plates were dried at room temperature. The dye was dissolved by adding 100 μl/measuring point of a 10% acetic acid solution. The extinction was determined by photometry at a wavelength of 595 nm. The change of cell number, in percent, was calculated by normalization of the measured values to the extinction values of the zero-point plate (=0%) and the extinction of the untreated (0 μm) cells (=100%). […]

DU145 cells = assay: Proliferation assay, DU145; type: cell-based; details: Homo sapiens, DU-145, 96 h; 4 days, crystal violet; read-out: Inhibition of DU145 cell proliferation IC50
Description: as §1

Caco-2 cells = assay: Proliferation assay, Caco-2; type: cell-based; details: Homo sapiens, Caco-2, 96 h; 4 days, crystal violet; read-out: Inhibition of Caco-2 cell proliferation IC50
Description: as §1

A2780 cells = assay: Proliferation assay, A2780; type: cell-based; details: Homo sapiens, A2780, 96 h; 4 days, crystal violet; read-out: Inhibition of A2780 cell proliferation IC50
Description: Cultivated tumour cells (HeLa, human cervical tumour cells, ATCC CCL-2; NCI-H460, human non-small cell lung carcinoma cells, ATCC HTB-177; A2780, human ovarian carcinoma cells, ECACC #93112519; DU 145, hormone-independent human prostate carcinoma cells, ATCC HTB-81; HeLa-MaTu-ADR, multidrug-resistant human cervical carcinoma cells, EPO-GmbH Berlin; Caco-2, human colorectal carcinoma cells, ATCC HTB-37; B16F10, mouse melanoma cells, ATCC CRL-6475) were plated at a density of 5,000 cells/well (DU145, HeLa-MaTu-ADR), 3,000 cells/well (NCI-H460, HeLa), 2,500 cells/well (A2780), 1,500 cells/well (Caco-2), or 1,000 cells/well (B16F10) in a 96-well multititer plate in 200 μL of their respective growth medium supplemented 10% fetal calf serum. […] Cell proliferation was determined by staining the cells with crystal violet: the cells were fixed by adding 20 μl/measuring point of an 11% glutaric aldehyde solution for 15 minutes at room temperature. […] The extinction was determined by photometry at a wavelength of 595 nm. The change of cell number, in percent, was calculated by normalization of the measured values to the extinction values of the zero-point plate (=0%) and the extinction of the untreated (0 μm) cells (=100%). […]

T1 sequence (P50750 whole entry): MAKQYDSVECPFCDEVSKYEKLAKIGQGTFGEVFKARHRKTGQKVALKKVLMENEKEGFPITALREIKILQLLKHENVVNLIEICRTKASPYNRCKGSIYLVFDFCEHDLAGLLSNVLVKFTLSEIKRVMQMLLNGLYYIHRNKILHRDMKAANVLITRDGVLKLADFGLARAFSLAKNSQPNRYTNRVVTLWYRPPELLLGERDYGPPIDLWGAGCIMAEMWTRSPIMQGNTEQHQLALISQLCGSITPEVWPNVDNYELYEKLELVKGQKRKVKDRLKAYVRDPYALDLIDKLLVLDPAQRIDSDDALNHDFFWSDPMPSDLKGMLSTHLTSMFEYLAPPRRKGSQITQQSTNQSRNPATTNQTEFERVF
T1 sequence (O60563 whole entry partner): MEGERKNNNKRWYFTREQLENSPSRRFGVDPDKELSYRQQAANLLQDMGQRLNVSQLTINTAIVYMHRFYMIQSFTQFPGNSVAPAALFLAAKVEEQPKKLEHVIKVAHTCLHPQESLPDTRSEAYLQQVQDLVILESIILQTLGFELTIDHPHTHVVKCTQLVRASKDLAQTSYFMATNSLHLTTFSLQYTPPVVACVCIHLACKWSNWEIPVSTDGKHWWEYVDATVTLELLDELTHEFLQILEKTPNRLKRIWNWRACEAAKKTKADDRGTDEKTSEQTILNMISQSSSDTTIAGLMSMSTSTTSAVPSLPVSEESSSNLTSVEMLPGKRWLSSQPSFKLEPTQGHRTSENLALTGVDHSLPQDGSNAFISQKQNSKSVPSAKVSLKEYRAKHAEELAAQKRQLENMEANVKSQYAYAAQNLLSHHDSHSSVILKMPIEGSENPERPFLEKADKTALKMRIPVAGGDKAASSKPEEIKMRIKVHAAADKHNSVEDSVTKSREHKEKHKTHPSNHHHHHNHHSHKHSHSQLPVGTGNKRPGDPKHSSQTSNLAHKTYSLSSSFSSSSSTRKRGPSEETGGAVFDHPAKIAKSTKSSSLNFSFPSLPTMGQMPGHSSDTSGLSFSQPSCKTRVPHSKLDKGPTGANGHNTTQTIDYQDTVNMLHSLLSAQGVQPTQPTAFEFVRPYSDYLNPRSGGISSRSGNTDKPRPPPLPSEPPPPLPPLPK

Structure (SMILES)	pIC50 (CDK9/CycT1)	pIC50 (HeLa cells)	pIC50 (DU145 cells)	pIC50 (Caco-2 cells)	pIC50 (A2780 cells)
COc1cc(F)ccc1-c1cc(Nc2cc(CS(C)(=O)=O)ccn2)ncn1 [Example 1, 6-(4-Fluoro-2-methoxyphenyl)-N-{4-[(methylsulfonyl)methyl]pyridin-2-yl}pyrimidin-4-amine]	7.80	7.00	6.71	6.47	7.19
COc1cc(F)ccc1-c1cc(Nc2cc(CS(C)(=O)=O)cc(F)n2)ncn1 [Example 4, 6-(4-Fluoro-2-methoxyphenyl)-N-{6-fluoro-4-[(methylsulfonyl)methyl]pyridin-2-yl}pyrimidin-4-amine]	7.96	–	–	–	–
COc1cc(F)ccc1-c1cc(Nc2cc(CS(C)(=O)=O)cc(C(F)(F)F)n2)ncn1 [Example 3, 6-(4-Fluoro-2-methoxyphenyl)-N-{4-[(methylsulfonyl)methyl]-6-(trifluoromethyl)pyridin-2-yl}pyrimidin-4-amine]	8.70	7.62	7.47	7.28	7.85
COc1cc(F)ccc1-c1cc(Nc2cc(CS(C)(=O)=O)cc(C)n2)ncn1 [Example 2, 6-(4-Fluoro-2-methoxyphenyl)-N-{6-methyl-4-[(methylsulfonyl)methyl]pyridin-2-yl}pyrimidin-4-amine]	8.70	7.12	7.12	7.04	–
